This passage reports EC50, Activity and IC50 results from ChEMBL document CHEMBL1773033, “Cyclic lactam hybrid α-MSH/Agouti-related protein (AGRP) analogues with nanomolar range binding affinities at the human melanocortin receptors” (Bioorg Med Chem Lett, 2011).

The structures appear in SMILES notation. Positions of bridges follow the written chain, without caps; N, C: chain ends. Non-standard residues stand in square brackets, D forms with d. Residues, ends and D or L forms follow the SMILES beside them. 2Nal = N[C@@H](Cc1ccc2ccccc2c1)C(=O)O

Assay [1] concerns the target T1, Melanocortin receptor 3 (Homo sapiens, UniProt P41968). Description: Agonist activity at human MC3R expressed in HEK293 cells assessed as intracellular cAMP accumulation. Format: functional, cell-based.
Assay [2] addresses T2, Melanocortin receptor 5 (Homo sapiens, UniProt P33032). Description: Displacement of [125I]-NDP-alpha-MSH from human MC5R expressed in HEK293 cells at 10 uM after 40 mins by Wallac 1470 gamma counting relative to Ac-Nle-c[Asp-His-D-Phe-Arg-Trp-Lys]-NH2. Format: cell-based.
Assay [3] addresses T1, Melanocortin receptor 3. Nature of the assay: Displacement of [125I]-NDP-alpha-MSH from human MC3R expressed in HEK293 cells at 10 uM after 40 mins by Wallac 1470 gamma counting relative to Ac-Nle-c[Asp-His-D-Phe-Arg-Trp-Lys]-NH2. The assay is classed as cell-based.
In assay [4] the target is T3, Melanocortin receptor 4 (Homo sapiens, UniProt P32245). Description: Agonist activity at human MC4R expressed in HEK293 cells assessed as intracellular cAMP accumulation. The assay is classed as functional, cell-based. Background: Cyclic AMP is a second messenger, typically raised through Gs and lowered through Gi signalling.
T3 sequence (P32245 whole entry): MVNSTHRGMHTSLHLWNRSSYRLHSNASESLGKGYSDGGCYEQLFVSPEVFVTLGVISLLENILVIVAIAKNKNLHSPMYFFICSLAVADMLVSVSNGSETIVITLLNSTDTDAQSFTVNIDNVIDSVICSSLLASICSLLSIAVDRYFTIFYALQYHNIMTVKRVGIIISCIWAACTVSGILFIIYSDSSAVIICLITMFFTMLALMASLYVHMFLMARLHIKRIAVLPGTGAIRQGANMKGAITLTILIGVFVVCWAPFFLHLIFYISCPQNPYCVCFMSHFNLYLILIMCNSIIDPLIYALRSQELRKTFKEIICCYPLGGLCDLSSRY
The target in assay [5] is T3, Melanocortin receptor 4. Description: Displacement of [125I]-NDP-alpha-MSH from human MC4R expressed in HEK293 cells after 40 mins by Wallac 1470 gamma counting. Format: cell-based. On the technique in general: Displacement assays read how much labelled ligand stays bound in the presence of the test substance.
In assay [6] the target is T3, Melanocortin receptor 4. Nature of the assay: Agonist activity at human MC4R expressed in HEK293 cells assessed as increase in intracellular cAMP level at 10 uM after 3 mins by luminescence counter relative to Ac-Nle-c[Asp-His-D-Phe-Arg-Trp-Lys]-NH2. Format: functional, cell-based.
Assay [7] addresses T4, Melanocyte-stimulating hormone receptor (Homo sapiens, UniProt Q01726). Description: Agonist activity at human MC1R expressed in HEK293 cells assessed as increase in intracellular cAMP level at 10 uM after 3 mins by luminescence counter relative to Ac-Nle-c[Asp-His-D-Phe-Arg-Trp-Lys]-NH2. The assay is classed as functional, cell-based.
Target sequence in this assay (Q01726 whole entry, looked up): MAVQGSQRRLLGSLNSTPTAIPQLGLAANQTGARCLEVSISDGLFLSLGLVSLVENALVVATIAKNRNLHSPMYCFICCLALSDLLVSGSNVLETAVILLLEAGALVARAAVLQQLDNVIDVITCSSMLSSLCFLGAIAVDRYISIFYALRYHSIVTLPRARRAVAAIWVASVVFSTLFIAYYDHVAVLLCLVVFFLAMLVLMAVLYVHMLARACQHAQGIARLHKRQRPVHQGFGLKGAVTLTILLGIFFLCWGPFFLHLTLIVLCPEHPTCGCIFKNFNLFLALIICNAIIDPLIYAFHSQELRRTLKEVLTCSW
Assay [8] has as its target T4, Melanocyte-stimulating hormone receptor. Nature of the assay: Displacement of [125I]-NDP-alpha-MSH from human MC1R expressed in HEK293 cells at 10 uM after 40 mins by Wallac 1470 gamma counting relative to Ac-Nle-c[Asp-His-D-Phe-Arg-Trp-Lys]-NH2. Format: cell-based.
Target sequence in this assay (Q01726 whole entry, looked up): as above
Assay [9] shares this target. Description: Agonist activity at human MC1R expressed in HEK293 cells assessed as increase in intracellular cAMP accumulation. The assay is classed as functional, cell-based.
Target sequence in this assay (Q01726 whole entry): as the sequence (Q01726 whole entry, looked up) above
For assay [10], the target named is T2, Melanocortin receptor 5. Nature of the assay: Agonist activity at human MC5R expressed in HEK293 cells assessed as increase in intracellular cAMP level at 10 uM after 3 mins by luminescence counter relative to Ac-Nle-c[Asp-His-D-Phe-Arg-Trp-Lys]-NH2. Format: functional, cell-based.
The target of assay [11] is T2, Melanocortin receptor 5. Description: Agonist activity at human MC5R expressed in HEK293 cells assessed as intracellular cAMP accumulation. The assay is classed as functional, cell-based.
The target of assay [12] is T1, Melanocortin receptor 3. Description: Displacement of [125I]-NDP-alpha-MSH from human MC3R expressed in HEK293 cells after 40 mins by Wallac 1470 gamma counting. The assay is classed as cell-based.
The target of assay [13] is T2, Melanocortin receptor 5. Nature of the assay: Displacement of [125I]-NDP-alpha-MSH from human MC5R expressed in HEK293 cells after 40 mins by Wallac 1470 gamma counting. The assay is classed as cell-based.
The target in assay [14] is T1, Melanocortin receptor 3. Description: Agonist activity at human MC3R expressed in HEK293 cells assessed as increase in intracellular cAMP level at 10 uM after 3 mins by luminescence counter relative to Ac-Nle-c[Asp-His-D-Phe-Arg-Trp-Lys]-NH2. Format: functional, cell-based.
In assay [15] the target is T3, Melanocortin receptor 4. Nature of the assay: Displacement of [125I]-NDP-alpha-MSH from human MC4R expressed in HEK293 cells at 10 uM after 40 mins by Wallac 1470 gamma counting relative to Ac-Nle-c[Asp-His-D-Phe-Arg-Trp-Lys]-NH2. Format: cell-based.
Assay [16] has as its target T4, Melanocyte-stimulating hormone receptor. Nature of the assay: Displacement of [125I]-NDP-alpha-MSH from human MC1R expressed in HEK293 cells after 40 mins by Wallac 1470 gamma counting. Format: cell-based.
Target sequence in this assay (Q01726 whole entry): as the sequence (Q01726 whole entry, looked up) above

T1 sequence (P41968 whole entry): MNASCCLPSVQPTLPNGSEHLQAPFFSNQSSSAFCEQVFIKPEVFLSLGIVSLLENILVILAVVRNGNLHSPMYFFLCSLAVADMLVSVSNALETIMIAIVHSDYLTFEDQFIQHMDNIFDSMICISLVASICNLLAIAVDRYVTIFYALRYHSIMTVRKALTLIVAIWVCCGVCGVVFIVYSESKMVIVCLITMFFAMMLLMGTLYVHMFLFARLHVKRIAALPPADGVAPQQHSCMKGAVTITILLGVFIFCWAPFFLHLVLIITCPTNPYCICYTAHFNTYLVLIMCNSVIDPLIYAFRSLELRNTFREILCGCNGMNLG
T2 sequence (P33032 whole entry): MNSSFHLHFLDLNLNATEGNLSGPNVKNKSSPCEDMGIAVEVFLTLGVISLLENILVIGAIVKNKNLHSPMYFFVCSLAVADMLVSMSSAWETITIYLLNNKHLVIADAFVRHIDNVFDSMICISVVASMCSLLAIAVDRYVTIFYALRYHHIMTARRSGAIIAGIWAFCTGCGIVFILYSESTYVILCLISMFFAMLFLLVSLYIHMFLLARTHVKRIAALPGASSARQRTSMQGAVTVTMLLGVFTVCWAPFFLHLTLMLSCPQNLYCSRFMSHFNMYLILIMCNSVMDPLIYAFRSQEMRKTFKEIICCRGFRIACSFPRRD

As for `CC(=O)N[C@H]1CC(=O)NCCCC[C@@H](C(N)=O)NC(=O)[C@@H](CC(N)=O)NC(=O)[C@H](Cc2ccccc2)NC(=O)[C@H](Cc2c[nH]c3ccccc23)NC(=O)[C@H](CCCNC(=N)N)NC1=O` (Ac-DRWF[dN]K-NH2; lactam 1-6), the EC50 entry (on Melanocortin receptor 3 [1]; at Melanocortin receptor 4 [4]; in assay [9]; on Melanocortin receptor 5 [11]) was “Not Active” throughout. The Activity (at Melanocortin receptor 5 [2]; at Melanocortin receptor 3 [3]; at Melanocortin receptor 4 [6]; in assay [7]; in [8]; on Melanocortin receptor 5 [10]) was 0% throughout. In addition, the Activity on Melanocortin receptor 3 [14] and on Melanocortin receptor 4 [15] was 0% in each case. Besides, the IC50 entry (on Melanocortin receptor 4 [5]; on Melanocortin receptor 3 [12]; at Melanocortin receptor 5 [13]; in assay [16]) was “Not Active” throughout.

Turning to `CC(=O)N[C@H]1CC(=O)NCCCC[C@@H](C(N)=O)NC(=O)[C@@H](CCC(N)=O)NC(=O)[C@H](Cc2ccccc2)NC(=O)[C@H](Cc2c[nH]c3ccccc23)NC(=O)[C@H](CCCNC(=N)N)NC1=O` (Ac-DRWF[dQ]K-NH2; lactam 1-6), the EC50 entry (at Melanocortin receptor 3 [1]; at Melanocortin receptor 4 [4]; in assay [9]; on Melanocortin receptor 5 [11]) was “Not Active” each time. The Activity (at Melanocortin receptor 5 [2]; at Melanocortin receptor 3 [3]; at Melanocortin receptor 4 [6]; in [7]; in assay [8]; at Melanocortin receptor 5 [10]) was 0% throughout. Moreover, the Activity at Melanocortin receptor 3 [14] and on Melanocortin receptor 4 [15] was 0% each time. Further, the IC50 result (at Melanocortin receptor 4 [5]; at Melanocortin receptor 3 [12]; on Melanocortin receptor 5 [13]; in [16]) was “Not Active” in each case.

In the case of `CC(=O)N[C@H]1CC(=O)NCCCC[C@@H](C(N)=O)NC(=O)[C@@H](CCCNC(=N)N)NC(=O)[C@H](Cc2ccccc2)NC(=O)[C@H](Cc2c[nH]c3ccccc23)NC(=O)[C@H](CCCNC(=N)N)NC1=O` (Ac-DRWF[dR]K-NH2; lactam 1-6), the EC50 result (at Melanocortin receptor 3 [1]; at Melanocortin receptor 4 [4]; in assay [9]; on Melanocortin receptor 5 [11]) was “Not Active” throughout. For the same molecule, the Activity (on Melanocortin receptor 5 [2]; at Melanocortin receptor 3 [3]; at Melanocortin receptor 4 [6]; in assay [7]; in assay [8]; on Melanocortin receptor 5 [10]) was 0% in each case. Besides, the Activity on Melanocortin receptor 3 [14] and at Melanocortin receptor 4 [15] was 0% throughout. Also, the IC50 result (on Melanocortin receptor 4 [5]; at Melanocortin receptor 3 [12]; at Melanocortin receptor 5 [13]; in [16]) was “Not Active” in each case.

Regarding `C[C@@H]1NC(=O)[C@@H](CC(N)=O)NC(=O)[C@H](Cc2ccc3ccccc3c2)NC(=O)[C@H](Cc2c[nH]c3ccccc23)NC(=O)[C@H](CCCNC(=N)N)NC(=O)CC[C@@H](C(N)=O)NC(=O)[C@H](Cc2ccccc2)NC1=O` (RW[2Nal][dN]AFE-NH2; lactam N-7), the EC50 entry (at Melanocortin receptor 3 [1]; at Melanocortin receptor 4 [4]; in assay [9]; on Melanocortin receptor 5 [11]) was “Not Active” in each case. Further, the Activity (at Melanocortin receptor 5 [2]; on Melanocortin receptor 3 [3]; on Melanocortin receptor 4 [6]; in assay [7]) was 0% in each case. Further, the IC50 result (on Melanocortin receptor 4 [5]; on Melanocortin receptor 3 [12]; at Melanocortin receptor 5 [13]; in [16]) was “Not Active” each time.
